Data taken from patent US20130109682A1, “CYCLIC ETHER COMPOUNDS USEFUL AS KINASE INHIBITORS” (NOVARTIS AG, priority 2010, published 2013).
Where two headings read alike, the source gives them in different places.

Experiments:
[1] = test system: KMS11 (human myeloma cell line); experiment: Cell proliferation assay (CellTiter-Glo), KMS11; type: cell-based; details: Homo sapiens, KMS-11
Summary of the method: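 EC50 derived from CellTiter-Glo luminescence after 3-day exposure at 37° C. Compound was diluted to 2× in medium and added to an equal volume of cells. KMS11 myeloma cells were plated on assay day at 2000/well in IMDM with 10% FBS and sodium pyruvate.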

KDR kinase = KDR kinase (Homo sapiens, UniProt P35968); experiment: KDR kinase inhibition assay (LanthaScreen TR-FRET); type: biochemical
Protocol: KDR Kinase Inhibition Assay
LanthaScreen™ is the detection of Time-Resolved Fluorescence Resonance Energy Transfer (TR-FRET) using lanthanide chelates to measure interactions between various binding partners. The application of TR-FRET to assay kinase activity was first described by Mathis (1995). A TR-FRET assay was used to measure KDR kinase inhibitory activity. The assay panel was run on a Biomek FX liquid handling workstations. To the assay plates containing 50 nL compound or control solutions, 4.5 μL of buffer A (50 mM TRIS-HCl pH 7.4, 2 mM DTT, 0.02% Tween 20, 0.02 mM Na3VO4, H2O nanpure) including a generic concentration of ATP (2 μM f.c.) was added per well, followed by 4.5 μL of buffer B (4 uM ATP in Buffer A) including a generic concentration of polyEAY (50 nM f.c.), KDR kinase, and divalent cations. Final concentration of kinase and cations were: [KDR kinase]=0.38 nM, [Mg]=10 mM, [Ca]=1 mM. After 1 hour of incubation the kinase reactions were stopped by the addition of 4.5 μL of stop solution D (50 mM EDTA, 20 mM TRIS-HCl pH 7.4, 0.04% NP-40) immediately followed by 4.5 μL of buffer A (50 mM TRIS-HCl pH 7.4, 2 mM DTT, 0.02% Tween 20, 0.02 mM Na3VO4, H2O nanpure) including the Tb-labeled P-20 antibody to give a total detection volume of 18 μL. After an incubation time of 45 min in the dark, the plates were transferred into the Pherastar fluorescence reader for counting. The effect of compound on the enzymatic activity was obtained from the linear progress curves and determined from one reading (end point measurement).

GSK3β = GSK3β (Homo sapiens, UniProt P49841); experiment: GSK3β ATP depletion assay; type: biochemical; details: read-out: GSK3b IC50
Summary of the method: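 Kinase activity is read as ATP consumption: luciferase luminescence reports the ATP remaining once roughly half of the 2 μM ATP is used. Reaction mix: 5 nM GSK3β, 10 μM b-CREB peptide, 50 mM Tris pH 7.5, 15 mM MgCl2, 1 mM DTT, 0.1% BSA, 2.5% DMSO. Enzyme and peptide are preincubated 15 min before ATP is added.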

PIM2 = PIM2 (Homo sapiens, UniProt Q9P1W9); experiment: Pim 2 AlphaScreen assay (high ATP); type: biochemical; details: read-out: Pim2 IC50
Summary of the method: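 IC50 values rest on detection of phosphorylated Bad peptide: after a ~2 h kinase reaction, an EDTA stop buffer containing anti-phospho Ser/Thr antibody, Protein A and streptavidin AlphaScreen beads was added and read after overnight dark incubation. ATP was high (11-125× Km), with 2.5% DMSO in pH 7.5 Hepes buffer containing MgCl2, BSA, Tween-20 and DTT.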

[2] = KMS11 cells, cell proliferation, read-out: KMS11-Luc EC50

PIM2, sequence (Q9P1W9 whole entry): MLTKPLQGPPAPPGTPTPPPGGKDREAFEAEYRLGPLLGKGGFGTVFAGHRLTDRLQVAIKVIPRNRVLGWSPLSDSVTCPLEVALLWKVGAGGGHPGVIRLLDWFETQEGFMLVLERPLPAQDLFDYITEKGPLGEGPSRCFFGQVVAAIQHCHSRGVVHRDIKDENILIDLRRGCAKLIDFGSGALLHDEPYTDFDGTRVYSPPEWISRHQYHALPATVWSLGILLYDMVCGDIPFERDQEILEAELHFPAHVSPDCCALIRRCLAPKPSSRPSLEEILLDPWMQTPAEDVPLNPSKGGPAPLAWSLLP
KDR kinase, sequence (P35968 20-1356): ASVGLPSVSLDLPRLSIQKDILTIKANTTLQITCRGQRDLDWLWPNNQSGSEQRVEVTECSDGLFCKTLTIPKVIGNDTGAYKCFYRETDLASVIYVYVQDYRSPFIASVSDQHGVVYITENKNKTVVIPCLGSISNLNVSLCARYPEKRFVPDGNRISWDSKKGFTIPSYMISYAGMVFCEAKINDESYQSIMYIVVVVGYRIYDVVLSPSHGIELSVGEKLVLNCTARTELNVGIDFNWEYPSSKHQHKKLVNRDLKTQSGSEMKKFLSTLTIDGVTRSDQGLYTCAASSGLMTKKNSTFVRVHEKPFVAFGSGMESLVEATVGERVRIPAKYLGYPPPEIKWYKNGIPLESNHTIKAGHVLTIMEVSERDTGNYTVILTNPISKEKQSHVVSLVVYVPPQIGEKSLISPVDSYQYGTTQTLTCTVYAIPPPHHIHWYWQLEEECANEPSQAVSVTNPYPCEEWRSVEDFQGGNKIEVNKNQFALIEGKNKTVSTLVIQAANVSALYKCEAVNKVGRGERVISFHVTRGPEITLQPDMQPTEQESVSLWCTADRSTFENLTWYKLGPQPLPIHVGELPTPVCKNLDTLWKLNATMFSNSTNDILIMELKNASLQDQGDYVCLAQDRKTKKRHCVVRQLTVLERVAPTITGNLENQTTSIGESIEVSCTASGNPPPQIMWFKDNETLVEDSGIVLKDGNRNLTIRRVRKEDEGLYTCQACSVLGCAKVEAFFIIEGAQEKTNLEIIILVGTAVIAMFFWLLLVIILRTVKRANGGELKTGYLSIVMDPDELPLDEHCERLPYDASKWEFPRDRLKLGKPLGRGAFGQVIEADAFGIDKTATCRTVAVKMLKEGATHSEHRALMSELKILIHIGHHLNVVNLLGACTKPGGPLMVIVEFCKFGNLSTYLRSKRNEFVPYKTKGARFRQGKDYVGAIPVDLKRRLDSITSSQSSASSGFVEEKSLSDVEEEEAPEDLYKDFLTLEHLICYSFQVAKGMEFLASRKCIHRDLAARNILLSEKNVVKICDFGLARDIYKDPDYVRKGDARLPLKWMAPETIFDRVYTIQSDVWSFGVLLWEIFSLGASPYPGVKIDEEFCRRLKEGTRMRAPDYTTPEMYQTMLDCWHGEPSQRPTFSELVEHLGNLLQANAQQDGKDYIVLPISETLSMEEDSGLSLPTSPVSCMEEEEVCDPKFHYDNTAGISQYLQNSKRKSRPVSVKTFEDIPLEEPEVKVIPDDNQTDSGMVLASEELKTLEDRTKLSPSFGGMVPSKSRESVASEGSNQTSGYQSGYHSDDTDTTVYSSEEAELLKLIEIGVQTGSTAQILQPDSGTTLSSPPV
GSK3β, sequence (P49841 whole entry, species assumed): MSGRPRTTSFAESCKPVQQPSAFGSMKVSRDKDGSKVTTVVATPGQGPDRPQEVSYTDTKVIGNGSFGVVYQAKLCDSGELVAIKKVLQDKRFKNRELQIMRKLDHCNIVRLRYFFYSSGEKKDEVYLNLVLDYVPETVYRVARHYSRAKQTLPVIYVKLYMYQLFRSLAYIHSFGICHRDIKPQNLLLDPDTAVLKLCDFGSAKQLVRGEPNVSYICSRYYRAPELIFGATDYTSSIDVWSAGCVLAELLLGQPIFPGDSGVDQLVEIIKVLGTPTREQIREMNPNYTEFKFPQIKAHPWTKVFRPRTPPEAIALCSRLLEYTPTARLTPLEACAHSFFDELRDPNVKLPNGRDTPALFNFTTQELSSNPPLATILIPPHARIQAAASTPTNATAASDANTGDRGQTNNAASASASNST

Row | SMILES | EC50 ([1]; KMS11-Luc cells) [nM] | IC50 (GSK3β) [nM] | IC50 (GSK3β; ATP depletion assay) [nM] | further results
1 | C=C1[C@@H](O)C[C@@H](c2ccncc2NC(=O)c2nc(-c3ccccc3)cnc2N)OC12CC2 [Example 5, 3-amino-N-(4-((5S,7S)-7-hydroxy-8-methylene-4-oxaspiro[2.5]octan-5-yl)pyridin-3-yl)-6-phenylpyrazine-2-carboxamide] | 90 | 1 |  | IC50 (KDR kinase): 10 nM
2 | C[C@@H]1O[C@H](c2ccncc2NC(=O)c2nc(-c3ccccc3)cnc2N)[C@@H](F)[C@H](O)[C@@]1(C)O [Example 63, 3-amino-N-(4-((2R,3S,4R,5R,6S)-3-fluoro-4,5-dihydroxy-5,6-dimethyltetrahydro-2H-pyran-2-yl)pyridin-3-yl)-6-phenylpyrazine-2-carboxamide] | 1300 | 2 |  | IC50 (KDR kinase): 220 nM
3 | N[C@@H]1C[C@H](c2ccncc2NC(=O)c2ccc(F)c(-c3c(F)cccc3F)n2)O[C@@H]2CCC[C@H]12 [Example 224, N-(4-((2R,4R,4aR,7aR)-4-aminooctahydrocyclopenta[b]pyran-2-yl)pyridin-3-yl)-6-(2,6-difluorophenyl)-5-fluoropicolinamide] |  |  | 363 | EC50 [1, 2]: 650 nM
4 | C[C@H]1O[C@@H](c2ccncc2NC(=O)c2ccc(F)c(-c3c(F)cccc3F)n2)C[C@@H](N)[C@]1(C)O [Example 219, N-(4-((2R,4R,5S,6R)-4-amino-5-hydroxy-5,6-dimethyltetrahydro-2H-pyran-2-yl)pyridin-3-yl)-6-(2,6-difluorophenyl)-5-fluoropicolinamide] |  |  | 979 | EC50 [1, 2]: 420 nM; IC50 (PIM2): 8.5 nM
5 | COc1cc(F)c(-c2nc(C(=O)Nc3cnccc3[C@H]3C[C@@H](N)[C@](C)(O)[C@@H](C)O3)ccc2F)c(F)c1 [Example 242, N-(4-((2R,4R,5S,6R)-4-amino-5-hydroxy-5,6-dimethyltetrahydro-2H-pyran-2-yl)pyridin-3-yl)-6-(2,6-difluoro-4-methoxyphenyl)-5-fluoropicolinamide] |  |  | 471 | IC50 (PIM2): 9.9 nM
6 | Nc1ncc(-c2ccccc2)nc1C(=O)Nc1cnccc1[C@@H]1C[C@H](N)[C@]2(O)CCCC[C@@H]2O1 [Example 243, 3-amino-N-(4-((2S,4S,4aR,8aS)-4-amino-4a-hydroxyoctahydro-2H-chromen-2-yl)pyridin-3-yl)-6-phenylpyrazine-2-carboxamide] |  |  | 870 | IC50 (KDR kinase; TR-FRET assay): 8400 nM
7 | CC1(C)C[C@H](N)C[C@@H](c2ccncc2NC(=O)c2nc(-c3ccccc3)cnc2N)O1 [Example 297, 3-amino-N-(4-((2S,4R)-4-amino-6,6-dimethyltetrahydro-2H-pyran-2-yl)pyridin-3-yl)-6-phenylpyrazine-2-carboxamide] |  |  | 7.9 | IC50 (PIM2): 514 nM
8 | Nc1ncc(-c2ccccc2)nc1C(=O)Nc1cnccc1[C@@H]1C[C@H](O)[C@]2(O)CCC[C@@H]2O1 [Example 186, 3-amino-N-(4-((2S,4S,4aR,7aS)-4,4a-dihydroxyoctahydrocyclopenta[b]pyran-2-yl)pyridin-3-yl)-6-phenylpyrazine-2-carboxamide] | 6910 | 40 |  | 
9 | Nc1ncc(-c2ccccc2)nc1C(=O)Nc1cnccc1[C@@H]1C[C@H](O)[C@]2(O)CCCC[C@@H]2O1 [Example 176, 3-amino-N-(4-((2S,4S,4aR,8aS)-4,4a-dihydroxyoctahydro-2H-chromen-2-yl)pyridin-3-yl)-6-phenylpyrazine-2-carboxamide] | 3600 | 48.5 |  | 
10 | Nc1ncc(-c2ccccc2)nc1C(=O)Nc1cnccc1[C@H]1C[C@@H](O)[C@H](O)[C@@H](CCl)O1 [Example 36, 3-amino-N-(4-((2R,4R,5S,6S)-6-(chloromethyl)-4,5-dihydroxytetrahydro-2H-pyran-2-yl)pyridin-3-yl)-6-phenylpyrazine-2-carboxamide] | 200 | 1 |  | IC50 (KDR kinase): 1 nM
11 | O=C1CC[C@H]2O[C@@H](c3ccncc3NC(=O)c3ccc(F)c(-c4c(F)cccc4F)n3)C[C@@H](O)[C@@H]2N1 [Example 196, 6-(2,6-difluorophenyl)-5-fluoro-N-(4-((2R,4R,4aS,8aR)-4-hydroxy-6-oxooctahydro-2H-pyrano[3,2-b]pyridin-2-yl)pyridin-3-yl)picolinamide] | 8100 | 645 |  | 
12 | N[C@H]1C[C@@H](c2ccncc2NC(=O)c2csc(-c3c(F)cccc3F)n2)O[C@H]2CCC[C@H]21 [Example 230, N-(4-((2S,4S,4aS,7aS)-4-aminooctahydrocyclopenta[b]pyran-2-yl)pyridin-3-yl)-2-(2,6-difluorophenyl)thiazole-4-carboxamide] |  |  | 4580 | EC50 [1, 2]: 2990 nM
13 | Nc1cc(F)c(-c2c(F)cccc2F)nc1C(=O)Nc1cnccc1[C@H]1C[C@@H](N)[C@@]2(O)CCCC[C@H]2O1 [Example 238, 3-amino-N-(4-((2R,4R,4aS,8aR)-4-amino-4a-hydroxyoctahydro-2H-chromen-2-yl)pyridin-3-yl)-6-(2,6-difluorophenyl)-5-fluoropicolinamide] |  |  | 393 | IC50 (PIM2): 1.8 nM
14 | Nc1cnc(-c2c(F)cccc2F)nc1C(=O)Nc1cnccc1[C@H]1C[C@@H](N)[C@@]2(O)CCC[C@H]2O1 [Example 213, 5-amino-N-(4-((2R,4R,4aS,7aR)-4-amino-4a-hydroxyoctahydrocyclopenta[b]pyran-2-yl)pyridin-3-yl)-2-(2,6-difluorophenyl)pyrimidine-4-carboxamide] | 2800 | 558 |  | 
15 | CC[C@]1(O)[C@H](O)C[C@H](c2ccncc2NC(=O)c2nc(-c3c(F)cccc3F)ncc2N)O[C@@H]1C [Example 143, 5-amino-2-(2,6-difluorophenyl)-N-(4-((2R,4R,5S,6R)-5-ethyl-4,5-dihydroxy-6-methyltetrahydro-2H-pyran-2-yl)pyridin-3-yl)pyrimidine-4-carboxamide] | 1940 | 102 |  | 
16 | CC[C@H]1O[C@@H](c2ccncc2NC(=O)c2nc(-c3ccccc3)ncc2N)C[C@@H](O)[C@@H]1O [Example 39, 5-amino-N-(4-((2R,4R,5S,6R)-6-ethyl-4,5-dihydroxytetrahydro-2H-pyran-2-yl)pyridin-3-yl)-2-phenylpyrimidine-4-carboxamide] | > 10000 | 267 |  | IC50 (KDR kinase): > 10000 nM
17 | Nc1ncc(-c2ccccc2)nc1C(=O)Nc1cnccc1[C@H]1C[C@@H](O)[C@@]2(O)CCCC[C@H]2O1 [Example 173, 3-amino-N-(4-((2R,4R,4aS,8aR)-4,4a-dihydroxyoctahydro-2H-chromen-2-yl)pyridin-3-yl)-6-phenylpyrazine-2-carboxamide] |  | 1.4 |  | 
18 | O=C(Nc1cnccc1[C@H]1C[C@@H](O)[C@@]2(O)CCCC[C@H]2O1)c1c[nH]cc(-c2ccccc2)c1=O [Example 178, N-(4-((2R,4R,4aS,8aR)-4,4a-dihydroxyoctahydro-2H-chromen-2-yl)pyridin-3-yl)-4-oxo-5-phenyl-1,4-dihydropyridine-3-carboxamide] | > 10000 | 4250 |  | 
19 | Nc1ncc(-c2ccccc2)nc1C(=O)Nc1cnccc1[C@H]1C[C@@H](O)[C@@]2(O)CCC[C@H]2O1 [Example 195, 3-amino-N-(4-((2R,4R,4aS,7aR)-4,4a-dihydroxyoctahydrocyclopenta[b]pyran-2-yl)pyridin-3-yl)-6-phenylpyrazine-2-carboxamide] | 110 | 1 |  | 
20 | CC1(C)C[C@@H](N)C[C@H](c2ccncc2NC(=O)c2nc(-c3ccccc3)cnc2N)O1 [Example 296, 3-amino-N-(4-((2R,4S)-4-amino-6,6-dimethyltetrahydro-2H-pyran-2-yl)pyridin-3-yl)-6-phenylpyrazine-2-carboxamide] |  |  | 9.4 | IC50 (PIM2): 283 nM
21 | N[C@@H]1C[C@H](c2ccncc2NC(=O)c2ccc(F)c(-c3c(F)cccc3F)n2)O[C@@H]2CCC[C@]12O [Example 210, N-(4-((2R,4R,4aS,7aR)-4-amino-4a-hydroxyoctahydrocyclopenta[b]pyran-2-yl)pyridin-3-yl)-6-(2,6-difluorophenyl)-5-fluoropicolinamide] | 640 | 290 |  | 
